Data on two compounds can be found in patent US9358276B2, “Methods of diagnosing and treating small intestinal bacterial overgrowth (SIBO) and SIBO-related conditions” (Cedars-Sinai Medical Center, priority 1999, dated 2016).

For test [1], the system named is SIBO. As to the kind of experiment: Case: impaired memory/mentation with SIBO, neomycin. To be noted: one patient. Type of test: in vivo, human. From the text: The patient was a person with a history of chronic intestinal complaints over several years. They experienced altered bowel habits with alternating diarrhea and constipation with bloating, gas, distension and abdominal pain. Also, they had been diagnosed by several psychiatrists as having psychiatric problems due to decreased mentation from mild senility, and they contemplated psychiatric hospitalization.
SIBO was detected in this patient by LBHT.

Test [2] relates to SIBO. As to the kind of experiment: Neomycin/antibiotic treatment of subjects with fibromyalgia and SIBO. Format: in vivo, human. From the text:
Of these 37, 28 tested positive for SIBO.
These ten subjects reported a 63±19% overall improvement in their symptoms by VAS scoring. FIG. 3 compares the VAS scores for various symptoms reported by the subjects with a suspected diagnosis of fibromyalgia before and after neomycin treatment. Symptoms included bloating, gas, diarrhea, joint pain and fatigue to treatment. Subjects were asked to identify the symptom most improved. Five subjects reported that pain was the most improved; three subjects reported that the level of fatigue was most improved, and two others reported that their abdominal complaints improved the most. There was a negative correlation between the degree of improvement in the VAS scoring and the amount of residual hydrogen peak seen in LBHT. (Pearson=−0.689, p=0.02; FIG. 4).
Subsequently, forty-six human subjects with FM (ACR criteria) entered a double blind randomized placebo controlled trial. Each subject underwent LBHT, a tender point examination and completed a questionnaire at the initial (baseline) and at every subsequent visit. Subjects were randomized to receive neomycin (500 mg twice daily in liquid form) or a matched placebo, for 10 days. After completion of this treatment, subjects with persistent SIBO received antibiotics (open label) until at least partially eradication was confirmed by LBHT. […] Six out of 20 patients (30%) in the neomycin group achieved complete […] eradication in the blinded arm. […] (Initial data in Table 1a).

Test [3] has as its system rapid upper gut transit and diarrhea. As to the kind of experiment: Continued pre-meal oleate/oleic acid treatment: diarrhea, stool output, symptoms. Format: in vivo, human. From the text: Continuing oleic acid treatment at home was offered to Aresponders≅ (i.e., patients who experienced a greater than 100% increase in baseline transit time with 3.2 g oleic acid). Of the 36 responders out of the original 45 patients, 18 provided records of stool volume and frequency on- and off-treatment for comparison. The inconvenient and unappealing nature of stool collection and measurement were the primary reasons reported by responders who chose not to participate in stool collection. After completing a set of three preliminary breath hydrogen tests, each participating responder was asked to refrain from taking oleic acid for two days in order to measure off-treatment stool output for a 24-hour period. Patients were issued a stool pattern record form and a stool collection container with graduated volume markings to record the frequency and volume of bowel movements. After two days without oleic acid, each patient took 3.2 g of oleic acid mixed with 25 mL of Ensure emulsion three times a day, 30 minutes before breakfast, lunch and dinner. After taking oleic acid for two days, patients recorded stool output for another 24-hour period. With this oleic acid emulsion treatment, stool frequency decreased from 6.9±0.8 to 5.4±0.9 bowel movements per 24-hour period (p<0.05), and stool volume decreased from 1829.0±368.6 to 1322.5±256.9 per 24-hour period (p<0.05).
The patient was a person with a history of adolescent-onset, persistent diarrhea. […] They presented with complaints of excessive gas, postprandial bloating, diarrhea and urgency, and 3 to 7 liquid bowel movements per day. Their upper gut transit times were (min) 30 (0 g oleic acid), 117 (1.6 g oleic acid) and 101 (3.2 g oleic acid).

For test [4], the system named is release of 5-HT from the proximal gut. The experiment in a line: 5-HT released by the proximal gut (ELISA of mid-gut fistula output). Particulars: for amount of 5-HT released by the proximal gut: n=1. Format: in vivo, dog. On the procedure:
To test the hypothesis that fat in the distal gut causes the release of 5-HT in the proximal gut, the amount of 5-HT collected from the output of the mid-gut fistula (proximal gut 5-HT) over a 90-minute period of buffer perfusion through both the duodenal and mid-gut fistulas (2 mL/min); buffer (control) or oleate (60 mM) was administered to the distal gut (n=1). The amount of 5-HT was determined using an ELISA kit specific for 5-HT (Sigma; Graham-Smith, D. G., The carcinoid syndrome, In: Topics in Gastroenterology, Truclove, S. C. and Lee, E. (eds.), Blackwells, London, p. 275 [1977]; Singh, S. M. et al., Concentrations of serotonin in plasma-a test for appendicitis?, Clin. Chem. 34:2572-2574 [1988]). The amount of 5-HT released by the proximal gut increased in response to fat in the distal gut from 100 μg in the control (buffer minus oleate) to 338 μg (buffer plus oleate to distal gut), showing that 5-HT is released in the proximal gut in response to fat in the distal gut. Thus, the release of 5-HT by the proximal gut can serve as a relayed signal for fat in the distal gut. The relayed release of 5-HT in the proximal gut in response to fat in the distal gut is consistent with Example 14(2), showing that slowing of intestinal transit by fat depends on an efferent 5-HT-mediated pathway to the proximal gut.
To test the hypothesis that 5-HT in the distal gut causes the release of 5-HT in the proximal gut, the amount of 5-HT collected from the output at the mid-gut fistula (Proximal gut 5-HT) over a 90-minute period of buffer perfusion through both the duodenal and mid-gut fistulas (2 mL/min each) was compared in the presence or absence of 5-HT (0.05 mg/kg/h) administered to the distal gut (n=1). 5-HT concentration was determined using an ELISA kit specific for 5-HT (Sigma). The amount of 5-HT released by the proximal gut increased from 156 μg in the control (minus distal 5-HT) to 450 μg (plus 5-HT to distal gut), implying that 5-HT is released by the proximal gut in response to 5-HT in the distal gut. Thus, the release of 5-HT by the proximal gut can serve as a relayed signal for distal gut 5-HT. This relayed release of 5-HT in the proximal gut explains the results of Example 14(6) showing that the slowing of intestinal transit by distal gut 5-HT was abolished by ondansetron in the proximal gut (efferent limb of response) as well as in the distal gut (afferent limb of response).
To test the hypothesis that the proximal gut releases 5-HT in response to lipid in the distal gut, we compared the amount of 5-HT in the output of the midgut fistula (i.e., proximal gut 5-HT) with buffered saline (control) or oleate in the distal gut. The amount of 5-HT collected over 90 min was measured using a 5-HT-specific ELISA test kit, as described herein above. Four dogs were tested.
The amount of 5-HT released from the proximal gut in response to intravenous PYY or buffered saline (Control) during buffer perfusion (2 mL/min over 90 minutes) through both the duodenal and mid-gut fistulas was measured to test the hypothesis that intravenous PYY (0.8 mg/kg/h) causes the release of 5-HT in the proximal gut. 5-HT was measured as in Example 14(9) above. The amount of 5-HT released by the proximal gut increased from 140.1 μg (Control) to 463.1 μg in response to intravenous PYY.
On the technique in general: An ELISA detects its analyte on a solid surface through an enzyme-linked reagent.

Turning to neomycin, in test [1], the quality of life entry was “dramatic improvement”. In addition, the “eradication of SIBO condition” value in test [1] (500 mg twice a day for ten days) is “completely eradicated”. In test [2] (six out of 20, 500 mg twice daily liquid, 10 days), the “patients achieving complete eradication of SIBO in the blinded arm” value was 30%. Besides, in test [2] (ten fibromyalgia subjects), the “eradication of SIBO (post-treatment LBHT)” value was “at least partially eradicated”. For the same compound, the “overall improvement in symptoms by VAS scoring” value in test [2] (ten fibromyalgia subjects, 500 mg twice daily, 10-day course) was 63±19%.

With `CCCCCCCC/C=C\CCCCCCCC(=O)[O-].[Na+]` [oleate, sodium oleate], in test [3] (all five patients, prolonged ingestion 15-30 minutes prior to meals), the diarrhea entry is listed as “reduced diarrhea”. Besides, in test [3] (patient with Crohn's disease), the “chronic abdominal pain, post prandial bloating and nausea” value is given as “complete resolution”. In test [3] (patient with Crohn's disease), this compound gave a weight gained of 22 lbs. Also, the postprandial dumping syndrome result in test [3] (patient with vagotomy and antrectomy) is listed as “resolution of postprandial dumping syndrome”. The “amount of 5-HT released by the proximal gut” value in test [4] (60 mM oleate to distal gut without intravenous PYY) was 509.8 µg; in test [4] (60 mM oleate to distal gut, 90 min, control 100 μg), 338 µg. The “amount of proximal gut 5-HT” value in test [4] (oleate in distal gut, 90 min, buffer 82.7±20.53 ng, four dogs) was determined as 211.75 ± 35.44 ng.
